For 13 molecules, IC50 results are on record in US10358455B2, “Arene ruthenium complex, preparation method and utilization thereof” (Guangdong Pharmaceutical University, priority 2017, dated 2019).

Assay [1] has as its system rat glioma C6 cancer cells. Nature of the assay: MTT assay on rat glioma C6 cells. Type of assay: cell-based. The settings on record: 5-80 μM, read-out: The inhibitory effect IC50 on rat glioma C6 cancer cells. As to the method: The Antiproliferative Activities of Arene Ruthenium (II) Complexes Against Rat Glioma C6 Cancer Cells.
(§1) The antiproliferative effects of arene ruthenium (II) complex against rat glioma C6 cells were evaluated by MTT assay. Discarding the medium of the rat glioma C6 cells in exponential growth phase, washing the cells twice with phosphate-buffered saline (PBS), dissociating into single cells by digesting with 1 mL trypsin, counting the cells. Adding fresh medium to dilute cell population to 1.5×10^4 cells/mL, inoculating into 96-well tissue culture plates (3×10^3 cells per well) with 200 μL/well in 6 wells of each group, repeating twice, and then culturing at 37° C. in 5% CO2 saturated humidity incubator for 16 h. After adherent cells are apparent, removing the supernatant carefully and adding DMEM media. Meanwhile, the cells were incubated with different concentrations of arene ruthenium (II) complexes with a final concentration of 5, 10, 20, 40 and 80 μM respectively, and maintain the total volume at 200 μL/well. Thereafter, the cells were cultured for 72 h. At the end of incubation, 20 μL/well of MTT solution (5 mg/mL) was added and incubated for 4 h. Removing the supernatant carefully and replaced with 150 μL/well of DMSO and oscillated for 10 min to ensure complete dissolution of the formazan crystallization. The absorbance values were measured at 490 nm using a microplate reader. Cell viability was calculated according to the following formula: Cell viability (%)=A490 nm (cells in experimental group)/A490 nm (cells in control group)×100%
According to the values of cell viability, calculating the inhibitory activities (IC50) of the target complex against rat glioma C6 cells.
For orientation: Formazan colour is commonly taken as a measure of viable cells.

Assay [2] relates to MDA-MB-231 breast cancer cells. Nature of the assay: MTT assay on MDA-MB-231 breast cancer cells. The note with it: 72 h, 5-80 μM, read-out: The inhibitory effect IC50 on MDA-MB-231 breast cancer cells. The class given is cell-based. Here is the method: The Anti-Invasion Activities of Arene Ruthenium (II) Complexes Against MDA-MB-231 Breast Cancer Cells.
The anti-invasion activities of arene ruthenium (II) complexes against MDA-MB-231 breast cancer cells was evaluated by MTT assay. Discarding the medium of the MDA-MB-231 breast cancer cells in exponential growth phase, washing the cells twice with phosphate-buffered saline (PBS), dissociating into single cells by digesting with 1 mL trypsin, counting the cells. Adding fresh medium to dilute cell population to 1.5×10^4 cells/mL, inoculating into 96-well tissue culture plates (3×10^3 cells per well) with 200 μL/well in 6 wells of each group, repeating twice, and then culturing at 37° C. in 5% CO2 saturated humidity incubator for 16 h. After adherent cells are apparent, removing the supernatant carefully and adding DMEM media. Meanwhile, the cells were incubated with different concentrations of arene ruthenium (II) complexes with a final concentration of 5, 10, 20, 40 and 80 μM respectively and maintain the total volume at 200 μL/well. Thereafter, the cells were cultured for 72 h. At the end of incubation, 20 μL/well of MTT solution (5 mg/mL) was added and incubated for 4 h. Removing the supernatant carefully and replaced with 150 μL/well of DMSO and oscillated for 10 mins to ensure complete dissolution of the formazan crystallization. The absorbance values were measured at 490 nm using a microplate reader. Cell viability was calculated according to the following formula: Cell viability (%)=A490 nm (cells in experimental group)/A490 nm (cells in control group)×100%
According to the values of cell viability, calculating the inhibitory activities (IC50) of the target complex against MDA-MB-231 cells.

In assay [3] the test system is nasopharyngeal carcinoma CNE-1 cancer cells. Kind of assay: MTT assay on nasopharyngeal carcinoma CNE-1 cells. The note with it: 72 h, 5-80 μM, read-out: The inhibitory effect IC50 on CNE-1 cancer cells. Type of assay: cell-based. Here is the method:
The Antiproliferative Activities of Arene Ruthenium (II) Complexes Against Nasopharyngeal Carcinoma CNE-1 Cancer Cells.
as §1, with “complex against nasopharyngeal carcinoma CNE-1 cells were” for “complex against rat glioma C6 cells were”, “of the nasopharyngeal carcinoma CNE-1 cells in” for “of the rat glioma C6 cells in”, “80 μM respectively and maintain” for “80 μM respectively, and maintain”, “and incubated at 37° C. for 4” for “and incubated for 4”
According to the values of cell viability, calculating the inhibitory activities (IC50) of the target complex against CNE-1 cancer cells.

Assay [4] deals with A549 lung adenocarcinoma cancer cells. Nature of the assay: MTT assay on A549 lung adenocarcinoma cells. Type of assay: cell-based. The note with it: 72 h, 5-80 μM, read-out: The inhibitory effect IC50 on A549 lung adenocarcinoma cancer cells. As to the method:
The Antiproliferative Activities of Arene Ruthenium (II) Complexes Against A549 Lung Adenocarcinoma Cancer Cells
as §1, with “complex against A549 lung adenocarcinoma cells were” for “complex against rat glioma C6 cells were”, “MTT assay. Discarded the medium” for “MTT assay. Discarding the medium”, “of the A549 lung adenocarcinoma cells in” for “of the rat glioma C6 cells in”, “80 μM respectively and maintain” for “80 μM respectively, and maintain”, “and incubated at 37° C. for 4” for “and incubated for 4”
According to the values of cell viability, calculating the inhibitory activities (IC50) of the target complex against A549 lung adenocarcinoma cancer cells.

In assay [5] the test system is human esophageal carcinoma EC-1 cells. Kind of assay: MTT assay on human esophageal carcinoma EC-1 cells. The class given is cell-based. The settings on record: 72 h, 5-80 μM, read-out: The inhibitory effect IC50 on human esophageal carcinoma EC-1 cells. Here is the method:
The Antiproliferative Activities of Arene Ruthenium (II) Complexes Against Human Esophageal Carcinoma EC-1 Cells.
as §1, with “complex against human esophageal carcinoma EC-1 cells were” for “complex against rat glioma C6 cells were”, “medium of human esophageal carcinoma EC-1 cells in” for “medium of the rat glioma C6 cells in”, “with 200 µL/well in 6” for “with 200 μL/well in 6”, “80 μM respectively and maintain” for “80 μM respectively, and maintain”, “and incubated at 37° C. for 4” for “and incubated for 4”
According to the values of cell viability, calculating the inhibitory activities (IC50) of the target complex against human esophageal carcinoma EC-1 cells.

Assay [6] relates to human epidermal HaCaT cells. Kind of assay: MTT assay on human epidermal HaCaT cells. The class given is cell-based. The note with it: 72 h, 5-80 μM, normal epidermal cells, read-out: The inhibitory effect IC50 on human epidermal HaCaT cells. As to the method: The Antiproliferative Activities of Arene Ruthenium (II) Complexes Against Human Epidermal HaCaT Cells.
The antiproliferative effects of arene ruthenium (II) complex against human epidermal HaCaT cells were evaluated by MTT assay. Discarding the medium of human epidermal HaCaT cells in exponential growth phase and washing the cells twice with phosphate-buffered saline (PBS), dissociating into single cells by digesting with 1 mL trypsin. Adding fresh medium to dilute cell population to 1.5×10^4 cells/mL, inoculating into 96-well tissue culture plates (3×10^3 cells per well) with 200 μL/well in 6 wells of each group, repeating twice, and then culturing at 37° C. in 5% CO2 saturated humidity incubator for 16 h. After adherent cells are apparent, carefully removing the supernatant and adding DMEM media. Meanwhile, the cells were incubated with different concentrations of arene ruthenium (II) complexes with a final concentration of 5, 10, 20, 40 and 80 μM respectively and maintain the total volume at 200 µL/well. Thereafter, the cells were cultured for 72 h. At the end of incubation, 20 μL/well of MTT solution (5 mg/mL) was added and incubated at 37° C. for 4 h. Removing the supernatant carefully and replaced with 150 μL/well of DMSO and oscillated for 10 min to ensure complete dissolution of the formazan crystallization. The absorbance values were measured at 490 nm using a microplate reader. Cell viability was calculated according to the following formula: Cell viability (%)=A490 nm (cells in experimental group)/A490 nm (cells in control group)×100%
According to the values of cell viability, calculating the inhibitory activities (IC50) of the target complex against human epidermal HaCaT cells.

For assay [7], the system named is nasopharyngeal carcinoma cells. The settings on record: read-out: anti-proliferative activity IC50, nasopharyngeal carcinoma cells; cited from earlier work.
For a further assay, the system named is lung cancer cells. The note with it: read-out: anti-proliferative activity IC50, lung cancer cells; cited from earlier work.
The test system of a further assay is breast cancer cells. The note with it: read-out: anti-proliferative activity IC50, breast cancer cells; cited from earlier work.
Another assay deals with ovarian cancer cells. The note with it: read-out: anti-proliferative activity IC50, ovarian cancer cells; cited from earlier work.

Read-outs that look alike come from different tables or passages of the source. A value given as a limit tells only on which side of the number the result lay.

As for `Cn1nnc2c(C(N)=O)ncn2c1=O` [Temozolomide, reference compound], the IC50 (commonly the concentration at which inhibition is half-maximal) in [1] (Rattus norvegicus, C6, 72 h) was 259 ± 15.5 µM.
On to `N.N.[Cl][Pt][Cl]` [cis-platin, reference compound], for which the IC50 turned out to be 17.8 ± 0.9 µM in assay [2]; 19.1 ± 0.5 µM in assay [3]; 93.1 ± 0.9 µM in assay [4]; 9.4 ± 0.21 µM in assay [5]; 17.1 ± 0.8 µM in assay [6].
[(η^6-p-cymene)Ru(C6H5-BzTSC)Cl]Cl: the IC50 in assay [7] is 20 µM; in the assay with lung cancer cells, 31 µM; with breast cancer cells it was 10 µM; in the assay with ovarian cancer cells, 34 µM.
For the molecule “[(η^6-p-cymene)Ru(m-BrPIP)Cl]Cl [RAP062]”, the IC50 was determined as 9.2 ± 0.3 µM in assay [2]; 5.4 ± 0.17 µM in [1] (72 h); 15.7 ± 0.11 µM in assay [3]; 6.59 ± 2.26 µM in assay [4]; 37.3 ± 1.99 µM in [6].
Consider “[(η^6-p-cymene)Ru(m-ClPIP)Cl]Cl [RAP052]”, for which the IC50 in assay [4] worked out at 36.6 ± 0.67 µM.
In the case of “[(η^6-p-cymene)Ru(o-BrPIP)Cl]Cl [RAP061]”, in [6], the IC50 is above 100 µM.
For the molecule “[(η^6-p-cymene)Ru(o-OCH3PIP)Cl]Cl [RAP201]”, the IC50 in assay [3] amounted to 17.4 ± 0.47 µM.
Turning to “[(η^6-p-cymene)Ru(p-CF3PIP)Cl]Cl [RAP083]”, the IC50 in assay [2] is 6.27 ± 0.29 µM; in assay [1] (72 h), 4.5 ± 0.07 µM; in [5] it was 6.9 ± 0.2 µM; in assay [6], above 100 µM.
Regarding “[(η^6-p-cymene)Ru(p-CH3PIP)Cl]Cl [RAP273]”, the results for the IC50 in assay [2] and in assay [5] were 9.6 ± 0.3 µM and 18.4 ± 11.7 µM, respectively.
Regarding [(η^6-p-cymene)Ru(p-FPIP)Cl]Cl [RAP04], the IC50 stood at 1.2 ± 0.3 µM in assay [1] (72 h) and 18.2 ± 0.5 µM in [5].
For the molecule [(η^6-p-cymene)Ru(p-IPIP)Cl]Cl [RAP073], the IC50 stood at 3.2 ± 0.1 µM in assay [2] and 3.3 ± 0.07 µM in assay [3].
In the case of “[(η^6-p-cymene)Ru(p-N(CH3)2PIP)Cl]Cl [RAP093]”, the IC50 in assay [2] was 6.4 ± 0.16 µM; in assay [1] (72 h), 5.6 ± 0.11 µM; in assay [3], 11.9 ± 0.73 µM; in assay [6] it was above 100 µM.
Consider “[(η^6-p-cymene)Ru(p-NO2PIP)Cl]Cl [RAP143]”, for which the values for the IC50 in assay [1] (72 h) and in assay [4] were 2.4 ± 0.05 µM and 11.8 ± 0.9 µM, respectively.
